Data as given in patent US20230219900A1, “Sodium 2-[(4S)-8-fluoro-2-[4-(3-methoxyphenyl)piperazin-1-yl]-3-[2-methoxy-5-(trifluoromethyl)phenyl]-4H-quinazolin-4-yl]acetate monohydrate, its preparation and use” (AIC246 AG & CO. KG, priority 2020, published 2023).

Columns and labels:
Format in all cases: physicochemical
[1] = Stability experiments: ageing (ambient conditions); conditions: for Time stable at ambient conditions: monohydrate
[2] = Stability experiments: ageing (humidity chamber)
[3] = Thermal stability / decomposition by thermogravimetric analysis (TGA)
Protocol: Thermogravimetric analysis (TGA): Thermogravimetric analyses were recorded in a Mettler Toledo TGA/SDTA851 with a balance MT1 type. Approximately 3-4 mg of sample were weighed (using a MX5 Mettler Toledo microbalance) into 40 μL aluminium crucibles with a pinhole lid and heated under nitrogen (10 mL/min) at 10° C./min from 30° C. to 300° C. Programs used: Data collection and evaluation with software STARe.

[4] = Solubility in an aqueous medium; conditions: in particular at physiological pH
[5] = Stability experiments: heating (vacuum oven); conditions: 2-3 mbar
Dynamic vapor sorption = experiment: Dynamic vapor sorption
Protocol: The sodium (S)-{8-fluoro-2-[4-(3-methoxyphenyl)piperazine-1-yl]-3-[2-methoxy (trifluoromethyl)phenyl]-3,4-dihydroquinazoline-4-yl}acetate monohydrate obtained from examples 07 and 08 were analyzed using X-Ray Diffraction, NMR spectroscopy, Thermal gravimetric analysis, Differential scanning calorimetry and dynamic vapor sorption.

[6] = Storage stability in an aqueous medium; conditions: in particular at physiological pH

Compound	Stability under ambient conditions (in words) [1]	Stability, ageing (ambient conditions) ([1]; 25° C., 30-40% RH, 24 hours)	Stability, ageing (ambient conditions) ([1]; within 24 hours)	Stability, ageing (humidity chamber) ([2]; 25° C./60% RH, 24-72 hours)	Decomposition temperature (TGA) ([3]; TGA)	Stability, ageing (ambient conditions, closed vial) ([1]; after 4 weeks)	Time stable at ambient conditions ([1]; listed as Form B)	Time stable at ambient conditions [1]	Solubility [4]	Stability, heating (vacuum oven) ([5]; 40° C., 15 h)	Stability, heating (vacuum oven) ([5]; 50° C., 60 h)	Stability, ageing (humidity chamber) ([2]; 25° C./60% RH, 72 hours)	Stability, ageing (humidity chamber) ([2]; 30° C./75% RH, 48 hours)	Ageing at higher temperatures and higher humidity ([2]; higher temperatures and higher humidity)	Dynamic vapor sorption weight increase (Dynamic vapor sorption; from 10 to 80% RH)	Dynamic vapor sorption weight increase (Dynamic vapor sorption; from 80 to 90% RH)	Storage stability [6]	Temperature up to which thermally stable (TGA) ([3]; as judged by TGA)
COc1cccc(N2CCN(C3=Nc4c(F)cccc4[C@H](CC(=O)[O-])N3c3cc(C(F)(F)F)ccc3OC)CC2)c1.[Na+] [Form A, Sodium (S)-{8-fluoro-2-[4-(3-methoxyphenyl)piperazine-1-yl]-3-[2-methoxy-5-(trifluoromethyl)phenyl]-3,4-dihydroquinazoline-4-yl}acetate]	not stable under ambient conditions	25° C., 30-40% RH, 24 hours: Turns into	Complete transition into Form B within in	25° C./60% RH, 24-72 hours: Turns into	Decomposition at ca. 250 °C	–	–	–	–	–	–	–	–	–	–	–	–	–
COc1cccc(N2CCN(C3=Nc4c(F)cccc4[C@H](CC(=O)[O-])N3c3cc(C(F)(F)F)ccc3OC)CC2)c1.O.[Na+] [sodium letermovir monohydrate, sodium 2-[(4S)-8-fluoro-2-[4-(3-methoxyphenyl)piperazin-1-yl]-3-[2-methoxy-5-(trifluoromethyl)phenyl]-4H-quinazolin-4-yl]acetate monohydrate]	–	–	–	–	–	No significant changes after 4 weeks.	over 6 months	over 4 weeks	readily soluble	40° C., 2-3 mbar, 15 h: No changes,	50° C., 2-3 mbar, 60 h: No changes	25° C./60% RH, 72 hours: minor changes	30° C./75% RH, 48 hours: amorphous	does not age	>9.5% weight increase from 10 to 80% RH	>8% weight increase from 80 to 90% RH	good storage stability	above 80 °C
